According to US9388143B2, “Polymorph of N-(3-{[(2Z)-3-[(2-chloro-5-methoxyphenyl)amino]quinoxalin-2(1H)-ylidene]sulfamoyl}phenyl)-2-methylalaninamide” (Sanofi, priority 2012, dated 2016):

Key:
Format in all cases: physicochemical
[1] = Differential scanning calorimetry, relative stability of polymorphs A and E by the rules of Burger; conditions: from DSC melting point and enthalpy of fusion
[2] = Stability of polymorph E in competition with polymorph A (slurry in solvent, X-ray powder diffraction)
Method: (§1) To verify the stability of polymorph E, trials were performed at the laboratory scale, by putting polymorph E in competition with compound (I) (polymorph A) and with the THF solvated form in mixtures of solvent.
Polymorph E was first put in competition with compound (I) (polymorph A) (mixture 50/50, w/w) in ethanol/THF 80/20% v/v. This stability test was performed at ambient temperature under magnetic stirring for 24 hours, then the solid was filtered, dried, then analyzed by X-ray powder diffraction. […] Similar experiments were performed in ethanol 100% at various concentrations.
Polymorph E stability also was tested as a suspension in 100% ethanol at room temperature, seeded with compound (I) (polymorph A).

[3] = Stability of polymorph E in competition with the THF solvated form (slurry in THF/ethanol)
Method: as §1
Polymorph E was also put in competition with the solvated form of compound (I) obtained in from THF. A mixture of the THF solvated form and polymorph E (50/50, w/w) was left under stirring for 24 hours in 40V of THF/ethanol (50/50, v/v) at room temperature.

[4] = under the competition conditions described

SMILES: COc1ccc(Cl)c(Nc2nc3ccccc3nc2NS(=O)(=O)c2cccc(NC(=O)C(C)(C)N)c2)c1 [Polymorph E, N-(3-{[(2Z)-3-[(2-chloro-5-methoxyphenyl)amino]quinoxalin-2(1H)-ylidene]sulfamoyl}phenyl)-2-methylalaninamide]
- thermodynamic stability relationship between polymorphs A and E (monotropic) [1]: the more stable one
- solid form found after competition ([2]; competition with polymorph A, ethanol 100%, various concentrations): Polymorph E was always obtained
- solid form found by X-ray powder diffraction after competition ([2]; mixture 50/50 w/w with polymorph A, ethanol/THF 80/20% v/v, ambient temperature, magnetic stirring, 24 hours): Polymorph E was obtained
- solid form found by X-ray powder diffraction after seeding ([2]; suspension in 100% ethanol, room temperature, seeded with polymorph A, 24 hours): only polymorph E
- relative stability versus polymorph A [2, 4]: more stable than the polymorph A of compound (I)
- solid form present at the end of competition ([3]; mixture 50/50 w/w with THF solvated form, 40V THF/ethanol 50/50 v/v, room temperature, stirring 24 hours): only polymorph E was present
- relative stability versus THF-solvated form [3, 4]: more stable than the THF-solvated form
